US12055539B2, “HDAC1/2 activator for promoting and/or accelerating myelination and/or remyelination” (UNIVERSITE DE FRIBOURG, priority 2017, dated 2024)
Entries after “also recorded” stand apart in the source; their conditions may differ.

Tests used:
HDAC1/2 [1] = test: Subcellular fractionation, IP and Western blot in de-differentiated rat Schwann cells; format: cell-based
Protocol: Purified primary rat Schwann cell cultures were obtained as described (ref. 5). Rat Schwann cells were then grown in proliferation medium: DMEM containing 10% Fetal calf serum (FCS, Gibco), 1:500 penicillin/streptomycin (Invitrogen), 4 μg/m1 crude GGF (bovine pituitary extract, Bioconcept), and 2 μM forskolin (Sigma), at 37° C. and 5% CO2/95% air. Schwann cell de-differentiation culture protocol was previously described (ref. 6). Briefly, Schwann cells were first growth-arrested in defined medium (DM, ref. 5) for 8 to 15 h, then 1 mM dbcAMP (Sigma) was added to induce differentiation. Cells were incubated in this medium for another 3 days. The medium was then changed to DM only without dbcAMP, and incubated in this medium for 3 days (differentiation mimicking adult Schwann cell stage). To induce de-differentiation, cells were then changed to proliferation medium and incubated in this medium for 3 days.
Two 15-cm culture plates of confluent de-differentiated rat Schwann cells were used per IP. Cells were either treated with 0.6 μM Mocetinostat (HDAC1/2 inhibitor) or its vehicle for 3 days in de-differentiation medium. Cells were washed with PBS and submitted to subcellular fractionation to separate the nuclear from the cytoplasmic fractions. IPs were then carried out on each fraction nuclear and cytoplasmic, as described above. Immunoprecipitating antibodies: 2.5 μg of eEF1A1 (rabbit, Abcam, cat. # ab157455), Sox10 (rabbit, DCS Innovative Diagnostik-Systeme, cat. # 51058C01) or GFP (rabbit, Abcam, cat. # ab290) antibodies were used per IP. Rabbit anti-GFP antibody was used as negative control IP. Acetylation of eEF1A1 and co-immunoprecipitation of acetylated eEF1A with Sox10 were detected using EEF1A-pan (Acetyl-Lys41) primary antibody (rabbit, Assay Biotech, 1:1000, cat. # D12106). Co-immunoprecipitation of HDAC2 with eEF1A1 was detected using an HDAC2 antibody (mouse, Sigma, 1:1000, cat. # H2663). Light chain-specific goat anti-rabbit-HRP or anti-mouse-HRP secondary antibodies (Jackson ImmunoResearch) were used. Detection was done with Immobilon Western Chemiluminescent HRP Substrate (Millipore). Inputs of the IPs were assayed on lysates used for IPs. GAPDH (mouse, Gene Tex, 1:5000, cat. # GTX28245) and LaminA/C (mouse, Sigma, 1:2000, cat. # SAB4200236) antibodies were used to evaluate the efficiency of cytoplasmic and nuclear fractionation.

HDAC1/2 [2] = test: Acetyl-lysine immunoprecipitation and LC-MS/MS of sciatic nerves after crush lesion; format: in vivo, mouse; settings: 10 mg/kg in pelvic cavity after sciatic nerve crush, nerves collected 24 h later, compared to vehicle
Protocol: Sciatic nerve crush lesions were carried out in adult mice (3-4 month old) with the following procedure: Isoflurane (3% for induction, 1.5-2% for narcosis during operation) was used for anesthesia. For analgesia, 0.1 mg/kg buprenorphine (Temgesic; Essex Chemie) was administered by i.p. injection 1 h before lesion and 12 hours after the operation. An incision was made at the height of the hip and the sciatic nerve was exposed on one side. The nerve was crushed (5×10 sec with crush forceps: Ref FST 00632-11) and the wound was closed using Histoacryl Tissue Glue (BBraun). After the operation, mice were wrapped in paper towels and placed on a warming pad until recovery from anesthesia.
For immunoprecipitation (IP), the injured sciatic nerve was collected from the lesion site to around 12 mm distal to the lesion site (region where the nerve splits into the three branches of tibial, sural and common peroneal nerves). After perineurium removal, sciatic nerves were frozen in liquid nitrogen, pulverized with a chilled mortar and pestle, lysed in radiolP assay (RIPA) buffer (10 mM Tris/HCl, pH 7.4, 150 mM NaCl, 50 mM NaF, 100 mM NaVO4, 1 mM EDTA, 0.5% wt/vol sodium deoxycholate, and 0.5% Nonidet P-40) for 15 min on ice, and centrifuged to pellet debris. Supernatants were collected and pre-cleared for 1 h with 30 gl protein A/G PLUS agarose beads (Santa Cruz Biotechnology). […]

HDAC1/2 [3] = test: Immunofluorescence of spinal cord after intrathecal HDAC1/2 inhibitor; format: in vivo, mouse; settings: single intrathecal injection 10 mg/kg, spinal cord collected after 24 h, vs vehicle
Protocol: For immuno fluorescence, adult mice were treated with a single intratechal injection of 10 mg/kg Mocetinostat (HDAC1/2 inhibitor) or its vehicle and their spinal cord was collected 24 h after injection. Mice were killed and perfused with 4% PFA and their spinal cord was processed as described above in Example 8. Primary antibody: EEF1A-pan (Acetyl-Lys41) antibody (rabbit, Assay Biotech, 1:1000, cat. # D12106), CC1 (mouse, 1:200, Calbiochem/Millipore, cat. # OP80).

crushed sciatic nerves = test: Electron microscopy of crushed sciatic nerves, myelin thickness (g-ratio); format: in vivo, mouse; settings: 10 mg/kg/day i.p. from 9 to 13 dpl, vs vehicle; for myelin sheath thickness: 10 mg/kg/day
Protocol: Adult mice were treated with theophylline or vehicle as described above in Example 4 from 9 to 13 days post sciatic nerve crush lesion. Injured sciatic nerves were collected for morphological analysis by electron microscopy. Briefly, mice were killed with 150 mg/kg pentobarbital i.p. (Esconarkon; Streuli Pharma AG) and sciatic nerves were fixed in situ with 3% paraformaldehyde and 0.15% glutaraldehyde in 0.1 M phosphate buffer, pH 7.4. Fixed tissues were post-fixed in 2% osmium tetroxide, dehydrated through a graded acetone series as described previously (ref. 7), and embedded in Spurr's resin (Electron Microscopy Sciences). Ultrathin cross-sections (90-nm thick) were made, as described (ref. 7). All analyses were done at 5 mm distal to the lesion site. No contrasting reagent was applied. Images were acquired using a Philips CM 100 BIOTWIN equipped with a Morada side-mounted digital camera (Olympus). The g-ratio of at least 50 axons was measured per animal and 3 animals per group (theophylline or vehicle) were used at 14 dpl. At 30 dpl, only 2 animals were used (more animals will be added at 30 days post lesion for statistical analyses).

[4] = tested on: mice after sciatic nerve crush lesion; test: Rotarod after sciatic nerve crush lesion; format: in vivo, mouse; settings: 15 rpm, 10 mg/kg/day i.p. from 9 to 13 dpl, vs vehicle
Protocol: (§1) Adult mice were treated with theophylline or vehicle as described above in Example 4 from 9 to 13 days post sciatic nerve crush lesion (carried out as described above in Example 1). Mice were placed three times on the Rotarod apparatus at a fixed speed of 15 rpm to test balance and motor coordination, at 14 and 30 dpl. The duration of each trial was limited to 600 s, and trials were separated by a 30 min recovery period. Latency to fall from the rotating beam was recorded and the average of the three trials was used for quantification. Recovery of sensory function was tested at 14 and 30 dpl by toe pinch test: each toe of the rear foot on the right side (lesioned side) was pinched with equal pressure applied by the same experimenter using flat tip forceps. Immediate withdrawal was recorded as functional sensitivity of the pinched toe. […] All mice were between 3 and 4 months old. The experimenter was blinded regarding the treatment that mice received.

multiple sclerosis = test: Contemplative combination treatment of MS patients; format: in vivo, human
Protocol: In this contemplative example, a group of female and male patients suffering from MS receiving theophylline [250 mg/day] during 1 month in addition to the standard treatment of interferon-β1a.

HDAC2 [5] = target: T1, HDAC2 (Mus musculus, UniProt P70288); test: Western blot of sciatic nerve lysates after sciatic nerve crush lesion; format: in vivo; settings: 10 mg/kg/day i.p. from 9 to 13 dpl, 14 and/or 30 dpl, vs vehicle
T1 construct: from tissue; host or cells: mouse sciatic nerve (adult after crush; P4 control and Schwann-cell HDAC1/2 dKO pups)
Protocol: Adult mice were treated with intraperitoneal injection of 10 mg/kg/day theophylline or its vehicle from 9 to 13 days post sciatic nerve crush lesion. At 14 days post lesion (dpl) the injured sciatic nerve (“crush”) was collected, as well as the same region of the contralateral nerve (“contra”) as internal control for each animal. After perineurium removal, sciatic nerves were frozen in liquid nitrogen, pulverized with a chilled mortar and pestle, lysed in RIPA buffer for 15 min on ice, and centrifuged to pellet debris. Supernatants were collected, and protein concentration was determined by Lowry Protein assay (Bio-Rad Laboratories). Sciatic nerves were submitted to SDS-PAGE and analysed by Western blot. Primary antibodies: HDAC2 (mouse, 1:1000, Sigma, cat. # H2663), Sox10 (rabbit, 1:250, DCS Innovative Diagnostik-Systeme, cat. # SI058C01), GAPDH (glyceraldehyde-3-phosphate-dehydrogenase, mouse, 1:5000, Genetex, cat. # GTX28245), P0 (chicken, 1:1000, Ayes Labs, cat. # PZO), Krox20 (rabbit, 1:500, Axxora, cat. # CO-PRB-236P-100). All secondary antibodies were from Jackson ImmunoResearch: light chain-specific goat anti-mouse-HRP (horse radish peroxidase) and goat anti-rabbit-HRP, and heavy chain-specific goat anti-chicken-HRP.

HDAC2 [6] = target: T1, HDAC2; test: Immunofluorescence of lysolecithin lesion site in dorsal funiculus of spinal cord; format: in vivo; settings: 14 dpl, treated 9 to 13 days post lysolecithin lesion, vs vehicle
Protocol: A focal demyelinating lesion was induced in the dorsal funiculus of the spinal cord of adult mice by injection of lysolecithin (1 μl at 1%), as described (ref. 9). This demyelination model is used as a model of multiple sclerosis lesion and is well characterized, the kinetics of demyelination and remyelination being well known. Mice were treated as described above in Example 4 with theophylline or vehicle for 4 days from 9 to 13 days post lysolecithin lesion, when OLP start to re-differentiate to remyelinate demyelinated axons. Mice were killed with 150 mg/kg pentobarbital i.p. (Esconarkon; Streuli Pharma AG) and perfused with 4% PFA. Spinal cords were collected, post-fixed for 2 h in 4% PFA, incubated in 30% sucrose overnight at 4° C., embedded in OCT compound and stored at −80° C. Spinal cords were then processed as sciatic nerves for immunofluorescence, as described in Example 2. Primary antibodies: HDAC2 (rabbit, 1:200, Santa Cruz Biotechnology, cat. # sc-7899), CC1 (mouse, 1:200, Calbiochem/Millipore, cat. # OP80), MBP (rat, 1:500, Serotec, cat. # MCA409S), Sox10 (rabbit, 1:250, DCS Innovative Diagnostik-Systeme, cat. # SI058C01).

[7] = tested on: lysolecithin demyelinating lesion of the spinal cord; test: Electron microscopy of spinal cord after lysolecithin lesion (remyelination); format: in vivo, mouse; settings: 14 and 30 dpl, treated 9 to 13 days post lysolecithin lesion, vs vehicle
Protocol: For electron microscopy analyses, adult mice were submitted to a lysolecithin lesion and treated with theophylline or vehicle, as described above in Example 8. Mice were killed at 14 dpl or 30 dpl with 150 mg/kg pentobarbital i.p. (Esconarkon; Streuli Pharma AG) and perfused with 3% PFA and 0.15% glutaraldehyde in 0.1 M phosphate buffer, pH 7.4. Spinal cords were collected and processed as described above in Example 6.

HDAC2 [8] = test: Western blot of P4 sciatic nerve lysates of control and HDAC1/2 dKO mice; format: in vivo, mouse; settings: control mice, 10 mg/kg s.c. once a day for 3 days from P1, nerves at P4
Protocol: In P1 control and dKO mice (as described in Example 2), 10 mg/kg theophylline or its vehicle were injected subcutaneously once a day for 3 days. Sciatic nerves were collected at P4. After perineurium removal, sciatic nerves were frozen in liquid nitrogen, pulverized with a chilled mortar and pestle, lysed in RIPA buffer for 15 min on ice, and centrifuged to pellet debris. Supernatants were collected, submitted to SDS-PAGE and analysed by Western blot. Primary antibodies: HDAC2 (mouse, 1:1000, Sigma, cat. # H2663), Sox10 (rabbit, 1:250, DCS Innovative Diagnostik-Systeme, cat. # SI058C01), GAPDH (glyceraldehyde-3-phosphate-dehydrogenase, mouse, 1:5000, Genetex, cat. # GTX28245), P0 (chicken, 1:1000, Ayes Labs, cat. # PZO). Secondary antibodies were from Jackson ImmunoResearch: light chain-specific goat anti-mouse-HRP (horse radish peroxidase) and goat anti-rabbit-HRP, and heavy chain-specific goat anti-chicken-HRP.

[9] = tested on: mice after sciatic nerve crush lesion; test: Toe pinch test after sciatic nerve crush lesion; format: in vivo, mouse; settings: 10 mg/kg/day i.p. from 9 to 13 dpl, vs vehicle
Protocol: as §1

[10] = 0.6 μM for 3 days in de-differentiation medium

T1 sequence (P70288 whole entry): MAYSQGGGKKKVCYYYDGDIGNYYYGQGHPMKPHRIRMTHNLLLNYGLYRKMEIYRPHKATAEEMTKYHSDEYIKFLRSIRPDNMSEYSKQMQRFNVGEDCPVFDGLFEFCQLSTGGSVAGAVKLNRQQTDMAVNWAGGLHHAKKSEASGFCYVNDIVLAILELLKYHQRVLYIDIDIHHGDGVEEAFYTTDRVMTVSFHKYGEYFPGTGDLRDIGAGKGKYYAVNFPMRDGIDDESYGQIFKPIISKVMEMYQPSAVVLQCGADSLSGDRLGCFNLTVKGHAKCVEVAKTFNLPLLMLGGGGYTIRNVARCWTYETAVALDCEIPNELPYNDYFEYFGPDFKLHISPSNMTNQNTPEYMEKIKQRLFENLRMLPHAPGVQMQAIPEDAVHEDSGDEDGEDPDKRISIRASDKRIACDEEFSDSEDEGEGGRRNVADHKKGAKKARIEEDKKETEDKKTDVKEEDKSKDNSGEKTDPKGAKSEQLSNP

Nc1ccccc1NC(=O)c1ccc(CNc2nccc(-c3cccnc3)n2)cc1 [Mocetinostat]
Sox10 expression in the nuclear compartment (HDAC1/2 [1]; [10]): strong decrease
Sox10 localization (HDAC1/2 [1]; [10]): partially re-localized from the nuclear to the cytoplasmic compartment
acetylated eEF1A1 levels (HDAC1/2 [1]; 0.6 μM for 3 days in de-differentiation medium, vs vehicle, predominantly nuclear): strong increase
interaction (co-immunoprecipitation) of acetylated eEF1A with Sox10 (HDAC1/2 [1]; 0.6 μM for 3 days, nuclear and cytoplasmic fractions): potentiated
abundance of eEF1A1 peptides after immunoprecipitation with anti-acetyl-lysine antibody (HDAC1/2 [2]): increased abundance
acetylated eEF1A in mature oligodendrocytes (CC1+) (HDAC1/2 [3]): robust increase; also recorded: accumulation of Ace-eEF1A in the nuclei of oligodendrocytes

Cn1c(=O)c2[nH]cnc2n(C)c1=O [theophylline]
g-ratio (axon diameter : [axon+myelin] diameter) (crushed sciatic nerves; 5 mm distal to lesion site): significantly lower
myelin sheath thickness (crushed sciatic nerves; 14 dpl): thicker myelin sheath
myelin sheath thickness (crushed sciatic nerves; 30 dpl (only 2 animals)): presumably also at 30 dpl; also recorded: thicker
performance on the Rotarod (motor function and coordination) ([4]; 14 dpl): higher performances
performance on the Rotarod (motor function and coordination) ([4]; 30 dpl): perform as well as theophylline-treated mice
disease progression (multiple sclerosis; 250 mg/day during 1 month in addition to standard interferon-β1a): in some cases complete stop of disease progression
remission following an attack (exacerbation) (multiple sclerosis; 250 mg/day during 1 month in addition to standard interferon-β1a, vs standard treatment only): significantly faster remission
life quality (multiple sclerosis; combination therapy with interferon-β1a): substantially increased life quality
HDAC2 expression levels (HDAC2 [5]): increased levels
Krox20 levels (HDAC2 [5]): high increase; also recorded: increased levels
P0 (myelin protein zero) levels (HDAC2 [5]): high increase; also recorded: increased levels
Sox10 levels (HDAC2 [5]): high increase; also recorded: increased levels
HDAC2 expression in the lesion site of the spinal cord, including differentiated oligodendrocytes (CC1-positive) (HDAC2 [6]): strongly increases; also recorded: higher amounts of HDAC2
Sox10 levels in the lesion site (HDAC2 [6]): increases; also recorded: higher levels of Sox10
myelin basic protein (MBP) levels in the lesion site (HDAC2 [6]): increases; also recorded: higher myelin content
remyelination of the lesioned spinal cord [7]: strongly enhanced
HDAC2 levels (HDAC2 [8]): increases; also recorded: increased levels
P0 levels (HDAC2 [8]): increases; also recorded: increased levels
Sox10 levels (HDAC2 [8]): increases; also recorded: increased levels
toe pinch test, recovery of sensory function ([9]; 14 dpl): recovered the sensitivity of more toes
toe pinch test, recovery of sensory function ([9]; 30 dpl): vehicle-treated mice had not yet recovered their sensory function as well as theophylline-treated mice
